Data taken from patent US10023575B2, “Cyclic ether derivatives of pyrazolo[1,5-a]pyrimidine-3-carboxyamide” (Boehringer Ingelheim International GmbH, priority 2015, dated 2018).
Like-named read-outs stand apart in the source and are kept apart here.

Columns and labels:
[1] = molecular target: PDE 2A (Homo sapiens (Human), UniProt O00408); experiment: Phosphodiesterase (PDE) 2A assay with fluorescent substrate (IMAP, fluorescence polarization); format: biochemical; conditions: labeled cAMP 30 nM, read-out: PDE2 IC50
Chain of PDE 2A (O00408 whole entry, species assumed): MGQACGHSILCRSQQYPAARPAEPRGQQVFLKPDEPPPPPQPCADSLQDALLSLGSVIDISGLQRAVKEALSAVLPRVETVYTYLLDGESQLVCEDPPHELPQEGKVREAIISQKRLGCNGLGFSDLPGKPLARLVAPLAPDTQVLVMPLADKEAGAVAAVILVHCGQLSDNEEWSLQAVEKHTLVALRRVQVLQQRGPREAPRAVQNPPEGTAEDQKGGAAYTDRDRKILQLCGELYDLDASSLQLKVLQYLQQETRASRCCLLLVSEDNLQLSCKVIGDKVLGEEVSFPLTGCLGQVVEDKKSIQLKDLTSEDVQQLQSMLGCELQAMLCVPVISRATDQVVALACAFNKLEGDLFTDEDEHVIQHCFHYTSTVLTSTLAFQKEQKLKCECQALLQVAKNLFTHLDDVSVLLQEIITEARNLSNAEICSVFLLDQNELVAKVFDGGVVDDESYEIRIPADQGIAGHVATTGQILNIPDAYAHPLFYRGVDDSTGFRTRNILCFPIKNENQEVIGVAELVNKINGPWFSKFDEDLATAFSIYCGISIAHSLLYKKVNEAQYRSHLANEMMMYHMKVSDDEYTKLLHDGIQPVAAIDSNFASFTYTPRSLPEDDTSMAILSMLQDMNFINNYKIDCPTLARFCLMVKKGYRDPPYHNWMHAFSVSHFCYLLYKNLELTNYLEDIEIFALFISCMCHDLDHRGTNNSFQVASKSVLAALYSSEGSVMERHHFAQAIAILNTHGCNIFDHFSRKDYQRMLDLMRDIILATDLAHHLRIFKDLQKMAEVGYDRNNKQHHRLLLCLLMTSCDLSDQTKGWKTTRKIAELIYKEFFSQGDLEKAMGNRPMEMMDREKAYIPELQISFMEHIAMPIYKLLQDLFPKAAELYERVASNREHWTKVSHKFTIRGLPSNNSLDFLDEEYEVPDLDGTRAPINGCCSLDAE
Description: (§1) The PDE reaction cleaves cAMP to AMP. The IMAP system (Molecular Device) using fluorescence polarization (FP) as detection principle was used to measure enzyme activity. A fluorescent labeled cAMP was used as substrate for the reaction, generating a labeled AMP. The fluorescent AMP binds specifically to the large M(III)-based nano-particles which reduces the rotational speed of the substrate and thus increases its polarization.
(§2) The inhibition of PDE 2A or 10 enzyme activity was assessed using IMAP-Phosphodiesterase-cAMP fluorescence labeled substrate (Molecular Devices, Order No. R7506), IMAP TR-FRET screening express (Molecular Devices, Order No. R8160, the TR-FRET component will not be used) and PDE 2A or PDE10 protein expressed upon baculovirus infection in SF9 cells. The cells were incubated after infection for ˜3 days and protein production was confirmed by Western Blot. The cells were collected by centrifugation and the pellet frozen in liquid nitrogen before it was resuspended in PBS containing 1% Triton X-100 and protease inhibitors. After 45 min incubation on ice, the cell debris was removed by centrifugation (13.000 rpm, 30 min).
(§3) All reactions were performed in 384 well plates, Perkin Elmer black optiplates and IMAP reaction buffer with 0.1% Tween20 (kit component)
(§4) Compounds were serial diluted in DMSO. With an intermediate dilution step with reaction buffer DMSO concentration was reduced to achieve 1% DMSO in the assay reaction. Setup of the assay started with 10 μl enzyme (˜10 ng/well, depending on prep. batch), 5 μl compound, reaction was started by addition of 5 μl labeled cAMP (30 nM, final concentration), immediately mixed for 15 seconds on a Eppendorf mixmate (2000 rpm) followed by an incubation at room temperature for 90 minutes in the dark. Reaction is stopped by adding of 60 μl binding buffer for FP/cAMP (kit component).
(§5) Each assay plate contained wells with vehicle controls (1% DMSO) for the measurement of non-inhibited reaction (=100% control) and wells without enzyme as 0% controls.

[2] = molecular target: PDE10 (Homo sapiens (Human), UniProt Q9Y233); experiment: Phosphodiesterase (PDE) 10 assay with fluorescent substrate (IMAP, fluorescence polarization); format: biochemical; conditions: labeled cAMP 30 nM
Chain of PDE10 (Q9Y233 whole entry): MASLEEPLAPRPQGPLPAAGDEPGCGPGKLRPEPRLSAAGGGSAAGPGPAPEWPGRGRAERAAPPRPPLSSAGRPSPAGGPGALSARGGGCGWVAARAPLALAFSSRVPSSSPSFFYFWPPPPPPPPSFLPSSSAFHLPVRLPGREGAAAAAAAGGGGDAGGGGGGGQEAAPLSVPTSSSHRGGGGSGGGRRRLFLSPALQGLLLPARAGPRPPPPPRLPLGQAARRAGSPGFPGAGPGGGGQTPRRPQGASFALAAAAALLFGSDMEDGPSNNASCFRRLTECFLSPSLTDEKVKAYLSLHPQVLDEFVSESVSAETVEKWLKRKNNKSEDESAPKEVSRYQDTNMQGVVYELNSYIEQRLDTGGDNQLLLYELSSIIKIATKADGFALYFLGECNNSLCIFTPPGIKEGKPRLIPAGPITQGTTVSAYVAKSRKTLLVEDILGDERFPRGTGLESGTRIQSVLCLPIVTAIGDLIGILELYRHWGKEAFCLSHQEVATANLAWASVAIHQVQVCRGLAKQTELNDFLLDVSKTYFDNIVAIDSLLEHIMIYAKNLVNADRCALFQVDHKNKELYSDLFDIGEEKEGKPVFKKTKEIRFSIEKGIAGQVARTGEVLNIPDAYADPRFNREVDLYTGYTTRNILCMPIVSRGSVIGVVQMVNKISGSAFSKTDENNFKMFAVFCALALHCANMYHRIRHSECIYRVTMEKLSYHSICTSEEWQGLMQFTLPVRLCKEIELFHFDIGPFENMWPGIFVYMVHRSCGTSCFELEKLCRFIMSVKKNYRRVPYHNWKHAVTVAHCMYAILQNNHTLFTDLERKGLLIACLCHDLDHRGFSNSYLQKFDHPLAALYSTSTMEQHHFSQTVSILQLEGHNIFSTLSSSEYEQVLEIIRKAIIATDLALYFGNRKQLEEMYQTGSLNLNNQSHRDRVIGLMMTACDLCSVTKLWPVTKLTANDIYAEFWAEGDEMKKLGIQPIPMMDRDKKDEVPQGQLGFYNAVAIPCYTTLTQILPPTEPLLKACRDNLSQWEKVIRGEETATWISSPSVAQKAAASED
Description: as §1, §2, §3, §4, §5

[3] = tested on: MDCK-MDR1 cell monolayers; experiment: Assessment of efflux in MDCK cells transfected with the human MDR1 gene (MDCK assay); format: in vitro ADME, canine; conditions: for efflux ratio: MDCK-MDR1, Papp (b-a) divided by Papp (a-b); for Papp (a-b) mean: MDCK-MDR1, apical-to-basal, pH 7.4, 37° C.
Description: Assessment of Efflux in Madin-Darby Canine Kidney Cells Transfected with the Human MDR1 Gene (MDCK Assay)
Apparent permeability coefficients (PE) of the compounds across the MDCK-MDR1 cell monolayers are measured (pH 7.4, 37° C.) in apical-to-basal (AB) and basal-to-apical (BA) transport direction. AB permeability (PEAB) represents drug absorption from the blood into the brain and BA permeability (PEBA) drug efflux from the brain back into the blood via both passive permeability as well as active transport mechanisms mediated by efflux and uptake transporters that are expressed on the MDCK-MDR1 cells, predominantly by the overexpressed human MDR1 P-gp. The compounds are assigned to permeability/absorption classes by comparison of the AB permeabilities with the AB permeabilities of reference compounds with known in vitro permeability and oral absorption in the human. Identical or similar permeabilities in both transport directions indicate passive permeation, vectorial permeability points to additional active transport mechanisms. Higher PEBA than PEAB indicates the involvement of active efflux mediated by MDR1 P-gp. Active transport is concentration-dependently saturable.
MDCK-MDR1 cells (1-2×10e5 cells/1 cm2 area) are seeded on filter inserts (Costar transwell polycarbonate or PET filters, 0.4 μm pore size) and cultured (DMEM) for 7 days. Subsequently, the MDR1 expression is boosted by culturing the cells with 5 mM sodium butyrate in full medium for 2 days. Compounds are dissolved in appropriate solvent (like DMSO, 1-20 mM stock solutions). […] The transport solution (TL) is applied to the apical or basolateral donor side for measuring A-B or B-A permeability (3 filter replicates), respectively. The receiver side contains the same buffer as the donor side. Samples are collected at the start and end of experiment from the donor and at various time intervals for up to 2 hours also from the receiver side for concentration measurement by HPLC-MS/MS or scintillation counting. Sampled receiver volumes are replaced with fresh receiver solution. Efflux ratio is calculated dividing the Papp (b-a) values by the Papp (a-b) values.

[4] = Metabolic stability in pooled human liver microsomes; format: in vitro ADME; conditions: 1 mg/mL protein, 1 μM compound, 37° C.; for Half-life t½ human: human liver microsomes; for half-life at 1 µM: human, pooled human liver microsomes, pH 7.6, human liver microsomes, read-out: Half-life t½ human
Description: The metabolic degradation of the test compound was assayed at 37° C. with pooled liver microsomes from various species. The final incubation volume of 100 μl per time point contains TRIS buffer pH 7.6 at room temperature (0.1 M), magnesium chloride (5 mM), microsomal protein (1 mg/mL for human and dog, 0.5 mg/mL for other species) and the test compound at a final concentration of 1 μM. Following a short preincubation period at 37° C., the reactions were initiated by addition of betanicotinamide adenine dinucleotide phosphate, reduced form (NADPH, 1 mM), and terminated by transferring an aliquot into solvent after different time points. […] The half-life was determined by the slope of the semi-logarithmic plot of the concentration-time profile.

[5] = Plasma protein binding with equilibrium dialysis, human plasma; format: in vitro ADME; conditions: equilibrium dialysis 2 hours 37° C.; for PPB HUM % BINDING: human plasma, 1.0 μM; for fraction unbound at 2 h, 1 µM: human, pooled human plasma (with NaEDTA), pH 7.4, human plasma, read-out: PPB HUM % BINDING (converted)
Excerpt: (§6) Plasma Protein Binding (Determination of Human and Rat Plasma Protein Binding with Equilibrium Dialysis)
(§7) This equilibrium dialysis (ED) technique is used to determine the approximate in vitro fractional binding of test compounds to human and rat plasma proteins.
(§8) Dianorm Teflon dialysis cells (micro 0.2) are used. Each cell consists of a donor and an acceptor chamber, separated by an ultrathin semipermeable membrane with a 5 kDa molecular weight cutoff.
(§9) Stock solutions for each test compound are prepared in DMSO at 1 mM and diluted to a final concentration of 1.0 μM. The subsequent dialysis solutions are prepared in pooled human and rat plasma (with NaEDTA)
(§10) Aliquots of 200 μL dialysis buffer (100 mM potassium phosphate, pH 7.4) are dispensed into the buffer chamber. Aliquots of 200 μL test compound dialysis solution are dispensed into the plasma chambers. Incubation is carried out for 2 hours under rotation at 37° C.
(§11) At the end of the dialysis period, the dialysate is transferred into reaction tubes. The tubes for the buffer fraction contain 0.2 ml Acetonitril/water (80/20). Aliquots of 25 μl of the plasma dialysate are transferred into deep well plates and mixed with 25 μl Acetonitril/water (80/20), 25 μl buffer, 25 μl calibration solution and 25 μl Internal Standard solution. Protein precipitation is done by adding 200 μl Acetonitrile. Aliquots of 50 μl of the buffer dialysate are transferred into deep well plates and mixed with 25 μl blank plasma, 25 μl Internal Standard solution and 200 μl Acetonitril. Samples are measured on HPLC-MS/MS-Systems and evaluated with Analyst-Software.
(§12) Percent bound is calculated with the formula: % bound=(plasma concentration−buffer concentration/plasma concentration)×100 and % free is calculated as difference.

[6] = In-vivo effect: animal experiments and sample analysis (plasma, brain, CSF concentration); conditions: rat, 0.5 h between administration and CSF sampling; for concentration at 0.5 h: doses of 10.0 or 5 μmol/kg
Description: In-Vivo Effect: Animal Experiments and Sample Analysis (CSF):
CSF samples were carefully collected by puncture of the cisterna magna under anesthaesia. Immediately after CSF sampling, blood was taken by heart puncture and brains were dissected out. Blood was collected in EDTA-coated microvettes and plasma was prepared by centrifugation. Concentration of the test compounds in plasma, CSF or brain homogenate was determined using HPLC-MS-MS.

[7] = Plasma protein binding with equilibrium dialysis, rat plasma; format: in vitro ADME; conditions: rat, pooled rat plasma (with NaEDTA), pH 7.4, rat plasma, equilibrium dialysis 2 hours 37° C., read-out: PPB RAT % BINDING (converted)
Excerpt: as §6, §7, §8, §9, §10, §11, §12

[8] = brain homogenate, read-out: conc brain
[9] = brain, read-out: c(brain)/c(plasma)

Structure (SMILES)	IC50 [1] [nM]	IC50 [2] [nM]	efflux ratio [3]	Papp (a-b) mean [3]	Half-life t½ human [4] [h]	PPB HUM % BINDING [5] [%]	concentration at 0.5 h [6, 8] [nM]	concentration at 0.5 h ([6]; plasma, read-out: conc plasma) [nM]	concentration at 0.5 h ([6]; read-out: conc CSF) [nM]	fraction unbound at 2 h, 1 µM [7]	half-life at 1 µM [4] [h]	fraction unbound at 2 h, 1 µM [5]	Kp at 0.5 h [6, 9]	Kp at 0.5 h ([6]; read-out: c(CSF)/c(plasma))
Cc1cnc2c(C(=O)NC3(c4ccc(C(F)(F)F)cc4F)CCOCC3O)cnn2c1 (single isomer, unassigned) [Example 81a]		> 10000					1070	2460	261	0.257	> 2.17	0.37		
Cc1cnc2c(C(=O)NC3(c4ccc(C(F)(F)F)cc4F)CCOCC3(C)O)cnn2c1 (single isomer, unassigned) [Example 83a]							449	794	61	0.178	> 2.17	0.156		
Cc1cnc2c(C(=O)NC3(c4ccc(C(F)(F)F)cc4F)CCOCC3(C)O)cnn2c1 (single isomer, unassigned) [Example 84a]				31 10-6 cm/s										
Cc1cnc2c(C(=O)NC3(c4ccc(C(F)(F)F)cc4F)CCOCC3(C)O)cnn2c1 (single isomer, unassigned) [Example 84b]				23 10-6 cm/s										

Continued, values first:

IC50 [1] [nM]	IC50 [2] [nM]	efflux ratio [3]	Papp (a-b) mean [3]	Half-life t½ human [4] [h]	PPB HUM % BINDING [5] [%]	concentration at 0.5 h [6, 8] [nM]	concentration at 0.5 h ([6]; plasma, read-out: conc plasma) [nM]	concentration at 0.5 h ([6]; read-out: conc CSF) [nM]	fraction unbound at 2 h, 1 µM [7]	half-life at 1 µM [4] [h]	fraction unbound at 2 h, 1 µM [5]	Kp at 0.5 h [6, 9]	Kp at 0.5 h ([6]; read-out: c(CSF)/c(plasma))	Structure (SMILES)
1250	> 10000	2.1	20 10-6 cm/s	1.05	79.4									O=C(NC1(c2ccc(C(F)(F)F)cc2F)COCC1O)c1cnn2cc(C3CC3)cnc12 (single isomer, unassigned) [Example 70]
13	> 10000	1.9	23 10-6 cm/s	>2.17	81.1									O=C(NC1(c2ccc(C(F)(F)F)cc2F)COCC1O)c1cnn2cc(C3CC3)cnc12 (single isomer, unassigned) [Example 71]
1.2	> 10000					1180	3320	157	0.135	> 2.17	0.213	0.36	0.05	O=C(NC1(c2ccc(C(F)(F)F)cc2F)CCOCC1O)c1cnn2cc(C3CC3)cnc12 (single isomer, unassigned) [Example 82a]
22	> 10000								0.053	2	0.085			Cc1cnc2c(C(=O)NC3(c4ccc(C(F)(F)F)cc4F)CCOCC3)cnn2c1 [Example 2]
39	6940								0.093	> 2.17	0.086			Cc1nn2cc(C3CC3)cnc2c1C(=O)NC1(c2ncc(C(F)(F)F)cc2F)CCOCC1 [Example 17]
74	> 10000					1320	1210	106	0.128	> 2.17	0.162	1.17	0.09	Cc1nn2cc(C3CC3)cnc2c1C(=O)NC1(c2ccc(C(F)(F)F)cn2)CCOCC1 [Example 21]
88	9070					957	1040	111	0.169	> 2.17	0.246	0.92	0.12	Cc1nn2cc(C3CC3)cnc2c1C(=O)NC1(c2ccc(C(F)(F)F)nc2)CCOCC1 [Example 25]
